Results as given in PubChem BioAssay (NCI).
Where “and” joins values, the source holds several entries; their conditions need not be identical. Identical values can stand only once.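 Cultured in 96-well plates, cells were exposed to test compound for 48 hours across five concentrations. At the GI50, growth is halved. TGI denotes the concentration required for complete inhibition of growth.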

Key:
Test in all cases: NCI tumour cell line growth inhibition, 48 h
SK-MEL-5 melanoma = tested on: SK-MEL-5 melanoma
NCI-H23 lung = tested on: NCI-H23 lung
UACC-62 melanoma = tested on: UACC-62 melanoma
HOP-92 NSCLC = tested on: HOP-92 NSCLC
SW-620 colon = tested on: SW-620 colon
RPMI-8226 leukemia = tested on: RPMI-8226 leukemia
HCC-2998 colon = tested on: HCC-2998 colon
SF-295 CNS = tested on: SF-295 CNS
NCI-H460 lung = tested on: NCI-H460 lung
MOLT-4 leukemia = tested on: MOLT-4 leukemia

Row | SMILES | GI50 (SK-MEL-5 melanoma) [µM] | TGI (SK-MEL-5 melanoma) | GI50 (NCI-H23 lung) [µM] | TGI (NCI-H23 lung) | TGI (UACC-62 melanoma) | GI50 (HOP-92 NSCLC) [µM] | TGI (HOP-92 NSCLC) | GI50 (SW-620 colon) [µM] | TGI (SW-620 colon) | GI50 (RPMI-8226 leukemia) | TGI (RPMI-8226 leukemia) | GI50 (HCC-2998 colon) [µM] | TGI (HCC-2998 colon) | GI50 (SF-295 CNS) [µM] | TGI (SF-295 CNS) | GI50 (NCI-H460 lung) [µM] | TGI (NCI-H460 lung) | GI50 (MOLT-4 leukemia) [µM] | TGI (MOLT-4 leukemia) | GI50 (UACC-62 melanoma) [µM]
1 | C/C(=N\NC(=S)N1CCC1)c1ccccn1 | 0.00994 | 2.01 µM | 0.00622 | 39.7 µM | 7.36 µM | 0.0351 | 47.9 µM | 0.0367 | > 100 µM | 0.00499 µM | > 63.5 µM | 0.0113 | 26.8 µM | 0.0285 | 49.2 µM | 0.07 | 6.33 µM | 0.00601 | > 10.5 µM | 
2 | Nc1ncnc2c1c(-c1ccc(Oc3ccccc3)cc1)nn2CC1SSCC1O (centres undefined) | 1.29 | 5.07 µM | 1.7 | 7.97 µM | 1.33 µM | 1.72 | 8.23 µM | 1.58 | 32.5 µM | 5.05 µM | 21.3 µM | 6.75 | 20.5 µM | 6.36 | 15.8 µM | 0.111 | 7.97 µM | 0.124 | 0.621 µM | 0.63
3 | O=C(CI)NC(=O)NC(=O)NCc1ccccc1 | 4.73 | 15.9 µM | 4.32 | 19.5 µM | 14.6 µM | 1.71 | 6.29 µM | 1.77 | 3.78 µM | 3.2 µM | 9.71 µM | 10.4 | 22.9 µM | 14.1 | 31.9 µM | 5.3 | 23.4 µM | 0.969 | 3.15 µM | 3.82
4 | NC1=NC(c2ccccc2Cl)c2c(n[nH]c2N)N1 (centres undefined) | 29.2 | > 100 µM | 20.3 | > 100 µM | > 100 µM | 18.2 | > 100 µM | 18.9 | > 100 µM | 42.9 µM | > 100 µM | 65 | > 100 µM | 16.7 | > 100 µM | 5.9 | > 100 µM | 22.5 | > 100 µM | 13.5
5 | N#CN1CC[C@H](C(=O)Nc2ncc(-c3ccccc3)s2)C1 | 0.829 | 3.58 µM | 0.705 | 6.46 µM | 2.18 µM | 0.662 | 4.25 µM | 0.313 | 14.4 µM | 0.27 µM | 0.854 µM | 1.09 | 2.58 µM | 1.22 | 6.44 µM | 0.423 | 2.47 µM | 0.309 | 2.04 µM | 0.371
6 | CCc1c(OC(C)=O)c2c(NC3OC(COC(C)=O)C(OC(C)=O)C(OC(C)=O)C3OC(C)=O)nc(SC)nc2oc1=O (centres undefined) |  | > 100 µM |  | > 100 µM | > 100 µM |  | > 100 µM |  | > 100 µM |  | > 100 µM |  | > 100 µM |  | > 100 µM |  | > 100 µM |  | > 100 µM | 
7 | CC(C)N(C(=O)C12C3C4C1C1C4(C#N)C3C12C(=O)O)C(C)C (centres undefined) |  | > 100 µM |  | > 100 µM | > 100 µM |  | > 100 µM |  | > 100 µM |  | > 66.7 µM |  | > 100 µM |  | > 100 µM |  | > 100 µM |  | > 100 µM | 
8 | CCc1ccc(Oc2c(-c3ccc(OCc4ccc(Cl)cc4)cc3O)nn(C)c2C(F)(F)F)cc1 | 1.22 | 2.47 µM | 0.376 | 1.74 µM | 2.25 µM | 0.324 | 1.77 µM | 0.382 | 1.76 µM | 0.505 µM | 3.6 µM | 2.44 | 9.62 µM | 0.947 | 2.51 µM | 0.356 | 1.31 µM | 0.565 | 2.93 µM | 0.516
9 | COc1cc([C@@H]2c3cc4c(cc3[C@H](SC(=N)N)[C@H]3COC(=O)[C@H]23)OCO4)cc(OC)c1OC | 0.201 | 0.649 µM | 0.299 | > 100 µM | > 100 µM | 37.1 | > 100 µM | 0.265 | > 100 µM | 0.409 µM | 32 µM | 0.338 | > 100 µM | 0.0369 | 0.19 µM | 0.294 | 56.1 µM | 0.382 | > 100 µM | 1.64
10 | CC[n+]1c(-c2ccccc2)c2cc(N)ccc2c2ccc(N)cc21 | 0.864 | 2.14 µM and 2.6 µM | 0.515 | 3.65 µM and 5.2 µM and 3.61 µM | 2.4 µM and 3.61 µM | 1.24 | 10.6 µM and 14.6 µM | 1.05 | 16.2 µM and 33.3 µM and 22.2 µM | 2.23 µM and 1.02 µM and 2.64 µM | > 100 µM and 10.4 µM and 24.3 µM | 1.22 | 3.31 µM and 16.5 µM and 19.8 µM | 1.51 | 13.7 µM and 15.5 µM and 29 µM | 1.21 | 12.3 µM and 22.5 µM and 22.1 µM | 2.77 | 21.1 µM and 13 µM and 35.9 µM | 0.578
11 | O=c1[nH]c(=S)[nH]c(O)c1/C=C1\C=Nc2ccccc21 | 11.7 | 27.2 µM | 12.4 | 44.2 µM | 46.9 µM | 3.36 | 27.3 µM | 1.83 | 3.78 µM | 2.34 µM | 6.49 µM | 11.4 | 24.8 µM | 1.81 | 6.84 µM | 4.07 | 18.5 µM | 2.51 | 8.02 µM | 8.26
12 | O=[N+]([O-])c1cccnc1S(=O)(=O)c1ccccc1 |  | 32.6 µM |  | 30.3 µM | 23.9 µM |  | 3.64 µM |  | 8.38 µM |  | 36.4 µM |  | 39.6 µM |  | 32.5 µM |  | 27.8 µM |  | > 25.7 µM | 
13 | O=C1Nc2ccc(-c3cccnc3)cc2/C1=C/c1cc(Br)c(O)c(Br)c1 | 3.95 | 7.78 µM | 6.86 | > 21.9 µM | 9.87 µM | 8.32 | > 25 µM | 8.23 | > 25 µM | 5.38 µM | 19.7 µM | 8.58 | > 25 µM | 5.25 | 13.7 µM | 6.97 | > 25 µM | 8.04 | > 25 µM | 3.54
